Experimental findings from publication PMC11931604 (Drug Development Research, 2025) are described below.

The experiment concerns the target D112_2N-mutant H3 HA (A/X-31) (Influenza A virus, UniProt P03438, D457N). The format is cell-based, influenza A/H3N2 virus.

For `CC1CCC2(CC1)SC(C)C(=O)N2NC(=O)c1ccc(C(C)(C)C)cc1` (stereo not shown) [Compound 2c, 4‐(tert‐Butyl)‐N‐(2,8‐dimethyl‐3‐oxo‐1‐thia‐4‐azaspiro[4.5]decan‐4‐yl)benzamide], the “inhibition of membrane fusion in cells expressing D112_2N-substituted HA” value is on record as “no inhibition”.
